# Data published in patent US3987028A, “Antibiotic 20,798 R.P” (Rhone-Poulenc S.A., priority 1968, dated 1976).
# Structures can show the parent of a compound that is named as a salt.
# Key:
# [1] = solubility; format: physicochemical
# [2] = tested on: Bacillus subtilis (ATCC 6633); format: cell-based; conditions: ATCC6633, read-out: Minimal inhibitory concentration
# Experimental: (§1) The bacteriostatic activity of 20,798 R.P. was determined by one of the dilution methods usually employed for this purpose. For each microorganism the minimum concentration of antibiotic, which under specified conditions inhibits all visible development of the microorganism in an appropriate nutrient medium, was determined. The results of the various determinations are collected in Table III below, in which the minimum bacteriostatic concentrations are expressed in micrograms of substance per cc. of test medium.
# [3] = tested on: Diplococcus pneumoniae (strain Til, Institut Pasteur); format: cell-based; conditions: Streptococcus pneumoniae, read-out: Minimal inhibitory concentration
# Experimental: as §1
# [4] = tested on: Klebsiella pneumoniae ATCC 10,031; format: cell-based; conditions: read-out: Minimal inhibitory concentration
# Experimental: as §1
# [5] = tested on: Lactobacillus casei ATCC 7469; format: cell-based; conditions: Lacticaseibacillus casei, ATCC7469, read-out: Minimal inhibitory concentration
# Experimental: as §1
# [6] = tested on: Mycobacterium para-smegmatis (A 75, Lausanne); format: cell-based; conditions: read-out: Minimal inhibitory concentration
# Experimental: as §1
# [7] = tested on: Mycobacterium phlei (Bacteriological Institute of Lyon); format: cell-based; conditions: Mycolicibacterium phlei, read-out: Minimal inhibitory concentration
# Experimental: as §1
# [8] = tested on: Mycobacterium smegmatis ATCC 607; format: cell-based; conditions: Mycolicibacterium smegmatis, ATCC607, read-out: Minimal inhibitory concentration
# Experimental: as §1
# [9] = tested on: Neisseria catarrhalis A 152; format: cell-based; conditions: A152, read-out: Minimal inhibitory concentration
# Experimental: as §1
# [10] = tested on: Pasteurella multocida (A 125, Institut Pasteur); format: cell-based; conditions: read-out: Minimal inhibitory concentration
# Experimental: as §1
# [11] = tested on: Proteus X 19; format: cell-based; conditions: read-out: Minimal inhibitory concentration
# Experimental: as §1
# [12] = tested on: Salmonella paratyphi A (Lacasse, Institut Pasteur); format: cell-based; conditions: Salmonella enterica, read-out: Minimal inhibitory concentration
# Experimental: as §1
# [13] = tested on: Sarcina lutea ATCC 9341; format: cell-based; conditions: Micrococcus luteus, ATCC9341, read-out: Minimal inhibitory concentration
# Experimental: as §1
# [14] = tested on: Staphylococcus aureus, strain 209 P ATCC 6538 P; format: cell-based; conditions: ATCC6538; Staphylococcus aureus 209 P ATCC 6538 P; read-out: Minimal inhibitory concentration
# Experimental: as §1
# [15] = tested on: Streptococcus faecalis (Faculty of Pharmacy, Paris); format: cell-based; conditions: Enterococcus faecalis, read-out: Minimal inhibitory concentration
# Experimental: as §1
# [16] = tested on: Streptococcus pyogenes hemolyticus (strain Dig. 7, Institut Pasteur); format: cell-based; conditions: read-out: Minimal inhibitory concentration
# Experimental: as §1
# [17] = tested on: Brucella bronchiseptica (CN 387 - Wellcome Institute); experiment: microbe, parasite or virus in culture; format: cell-based; conditions: Bordetella bronchiseptica, read-out: Minimal inhibitory concentration
# [18] = toxicity on mice (LD50); conditions: mouse, in vivo, ip, intra-peritoneal (i.p.), read-out: 50% lethal dose (LD50)
# Experimental: The toxicity of 20,798 R.P. has been studied principally on mice. The 50% lethal dose or LD50 was determined intra-peritoneally: […]
# [19] = stability to acid treatment of the fermentation broth; format: physicochemical; conditions: 10° to 75° C., 48 hours to 30 minutes
# Experimental: When desired, the fermentation broth can, before the extraction procedures, be treated with an acid at a temperature between 10° and 75° C. for a period of from 48 hours to 30 minutes, the length of time varying inversely with the temperature, so as to enrich the antibiotic 9865 R.P. with daunorubicin. […] For acidification of the fermentation broth inorganic acids (hydrochloric, phosphoric or sulphuric acid) or organic acids (acetic or oxalic acid etc.) are suitable at various concentrations, but preferably hydrochloric acid or oxalic acid is used at concentrations of between 0.01N and 1N. The hydrolysis is preferably carried out for a period of from 15 hours to 1 hour at a temperature of from 20° C. to 50° C., the length of time varying inversely with the temperature.
# [20] = tested on: sarcoma 180; experiment: anti-tumor activity in mice, sarcoma 180
# [21] = tested on: leucaemia L 1210; experiment: anti-tumor activity in mice, leucaemia L 1210
smiles,measurement,setting,value
"COc1cccc2c1C(=O)c1c(O)c3c(c(O)c1C2=O)CC(O)(C(C)O)CC3O (stereo not shown) [aglycone of 20,798 R.P.]",Solubility,[1]; benzene,very sparingly soluble
same,Solubility,[1]; chloroform,sparingly soluble
same,Solubility,[1]; diethyl ether,practically insoluble
same,Solubility,[1]; ethyl acetate,sparingly soluble
same,Solubility,[1]; hexane,practically insoluble
same,Solubility,[1]; methanol,sparingly soluble
same,Solubility,[1]; water,practically insoluble
"COc1cccc2c1C(=O)c1c(O)c3c(c(O)c1C2=O)CC(O)(C(C)O)CC3OC1CC(N)C(O)C(C)O1 (stereo not shown) [20,798 R.P.]",MIC,[2],21 µg/mL
same,MIC,[3],6.1 µg/mL
same,MIC,[4],> 330 µg/mL
same,MIC,[5],24 µg/mL
same,MIC,[6],3.1 µg/mL
same,MIC,[7],3.1 µg/mL
same,MIC,[8],5.8 µg/mL
same,MIC,[9],> 28 µg/mL
same,MIC,[10],14 µg/mL
same,MIC,[11],> 83 µg/mL
same,MIC,[12],> 83 µg/mL
same,MIC,[13],12 µg/mL
same,MIC,[14],100 µg/mL
same,MIC,[15],> 33 µg/mL
same,MIC,[16],11 µg/mL
same,MIC,[17],170 µg/mL
same,LD50,[18],6.5 mg/kg
same,hydrolysis under acid treatment,[19],not hydrolysed
same,ED50,"[20]; Mus musculus, Sarcoma-180, sc, read-out: 50% active dose (AD50)",0.75 mg/kg
same,anti-tumor activity,"[20]; graftable tumours of mice, solid form of sarcoma 180",particularly active
same,ED50,"[21]; Mus musculus, L1210, ip, read-out: 50% active dose (AD50)",0.8 mg/kg
same,anti-tumor activity,"[21]; graftable tumours of mice, leucaemia L 1210",particularly active
"COc1cccc2c1C(=O)c1c(O)c3c(c(O)c1C2=O)CC(O)(C(C)O)CC3OC1CC(N)C(O)C(C)O1 (stereo not shown) [20,798 R.P. hydrochloride]",Solubility,[1]; alcohols,soluble
same,Solubility,[1]; benzene,practically insoluble
same,Solubility,[1]; chloroform,sparingly soluble
same,Solubility,[1]; diethyl ether,practically insoluble
same,Solubility,[1]; water,soluble
